This is an account of results in US20160108027A1, “SUBSTITUTED BENZOXAZOLES” (BAYER PHARMA AKTIENGESELLSCHAFT, priority 2013, published 2016).

Experiment [1] deals with T1, thrombin (Homo sapiens, UniProt P00734). In words: Measurement of the thrombin inhibition in buffer. Conditions: human thrombin 0.06 nmol/l in Tris buffer pH 7.4, 22° C., substrate Boc-Asp(OBzl)-Pro-Arg-AMC; in some cases means of individual determinations. Type of experiment: biochemical. The gist of the method: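 Compound pre-incubated 15 min at 22° C with 0.06 nmol/l human thrombin in 50 mmol/l Tris, 100 mmol/l NaCl, 0.1% BSA, pH 7.4, then 5 μmol/l Boc-Asp(OBzl)-Pro-Arg-AMC added for 30 min. AMC fluorescence read at 360/460 nm against DMSO controls; IC50 from concentration–activity curves.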

Experiment [2] addresses T1, thrombin. In words: Determination of the thrombin-inhibitory activity in plasma samples (ecarin-activated). It counts as biochemical. The settings on record: citrate plasma, ecarin activation, fluorogenic thrombin substrate; in some cases means of individual determinations. The gist of the method:
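Citrate plasma activated with ecarin (final 20 mU per reaction) in Ca buffer (Hepes, NaCl, CaCl2, PEG), with compound diluted from DMSO into water. Fluorogenic thrombin substrate at final 50 μmol/l; fluorescence (ex 360/em 465 nm) read each minute for 20 minutes, with buffer-only unstimulated control.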

By IC50 is commonly meant the midpoint of a concentration-inhibition curve. For the molecule `COc1cc(C(=O)N2CC(C)(C)OCC2(C)C(C)O)cc2nc(NCc3cc(Cl)ccn3)oc12` (centres unmarked) [Example 69, (2-{[(4-Chloropyridin-2-yl)methyl]amino}-7-methoxy-1,3-benzoxazol-5-yl) [5-(1-hydroxyethyl)-2,2,5-trimethylmorpholin-4-yl]methanone], the results for the IC50 in experiment [1] and in experiment [2] were 17 nM and 27 nM, respectively.

Consider `CCC1C(=O)N2CCC2CN1C(=O)c1cc(OC)c2oc(NCc3cc(Cl)ccn3)nc2c1` (centres unmarked) [Example 73, 4-[(2-{[(4-Chloropyridin-2-yl)methyl]amino}-7-methoxy-1,3-benzoxazol-5-yl)carbonyl]-3-ethyl-1,4-diazabicyclo[4.2.0]octan-2-one], for which the concentration for half-maximal inhibition (IC50) in experiment [1] was 51 nM; in experiment [2] it was 50 nM.

Consider `COc1cc(C(=O)N2CC(C)CCC2CC2(O)CC2)cc2nc(NCc3cc(Cl)ccn3)oc12` (centres unmarked) [Example 87, (2-{[(4-Chloropyridin-2-yl)methyl]amino}-7-methoxy-1,3-benzoxazol-5-yl){2-[(1-hydroxycyclopropyl)methyl]-5-methylpiperidin-1-yl}methanone], for which the IC50 in experiment [1] was 5.3 nM; in experiment [2], 27 nM.

In the case of `[2H]C([2H])(C)O[C@@H]1CC(CO)N(C(=O)c2cc(OC)c3oc(NC(C)c4cc(Cl)ccn4)nc3c2)C1` (stereo partly drawn) [Example 97, (2-{[1-(4-Chloropyridin-2-yl)ethyl]amino}-7-methoxy-1,3-benzoxazol-5-yl)[(4R)-4-[(1,1-^2H2)ethyloxy]-2-(hydroxymethyl)pyrrolidin-1-yl]methanone], the IC50 in experiment [1] was 17 nM; in experiment [2], 27 nM.
